Experimental data as given in patent US20240197828A1, “Chimeric molecule to treat sepsis and other inflammatory conditions” (THE FEINSTEIN INSTITUTES FOR MEDICAL RESEARCH, priority 2022, published 2024).
“Also recorded” adds a separate entry of the source. Residues, ends and D or L forms follow the SMILES beside them.

What was measured:
RAW264.7 cells = experiment: eCIRP-induced cytokine release in RAW264.7 cells (ELISA of supernatants); type: cell-based, mouse; details: RAW264.7, rmCIRP 1 μg/mL, 4 hours, vs rmCIRP alone
Method: FIG. 2. Effects of MOP peptides on TNFα levels. RAW264.7 macrophages were cultured and treated with either volume-equivalent PBS, recombinant murine (rm) CIRP (eCIRP; 1 μg/mL), or rmCIRP with each respective peptide (10 μg/mL). After 4 hours, cell supernatants were assessed for TNFα levels by ELISA. Experiments were performed 3 times, and all data were used for analysis. Data are expressed as mean±SEM and compared by one-way ANOVA and SNK test. *p<0.05 vs. PBS, #p<0.05 vs. eCIRP.
FIG. 4. eCIRP-induced inflammation is attenuated by MOP3. RAW264.7 cells were treated according to respective groups: PBS (volume equivalent), rmCIRP (1 μg/mL), or rmCIRP with MOP3 at increasing doses. After 4 hours, cell supernatants were analyzed for TNFα levels by ELISA. Experiments were performed 3 times, and all data were used for analysis. Data are expressed as mean #SEM and compared by one-way ANOVA and SNK test. *p<0.05 vs. PBS, #p<0.05 vs. eCIRP.
Computational modeling was used to determine the likely domain of MFG-E8's binding to eCIRP. The known amino acid (AA) sequence of this domain was used to develop and test potential therapeutic peptides. An MFG-E8 derived oligopeptide, MOP3, was developed based on 15 AA from MFG-E8 discoidin 2 domain (mimicking MFG-E8's C-terminal) and tagged with the 3 AA, RGD, (mimicking MFG-E8's binding capacity for the integrin receptor at the N-terminal). Binding of MOP3 to CIRP was quantified using Surface Plasmon Resonance (SPR) analysis. Macrophages (RAW264.7 cells) were treated with FITC-recombinant mouse (rm)-CIRP or co-incubated MOP3 and FITC-rmCIRP with and without a. Br-integrin Ab. After 1 h, cells were fixed and analyzed for intracellular FITC-rmCIRP by flow cytometry. Macrophages were stimulated with rmCIRP or co-incubated mixture of MOP3 and rmCIRP. After 4 h, cell culture supernatants were analyzed for inflammatory cytokine, TNFα.
Mouse macrophage cell line, RAW264.7 cells were obtained from American Type Culture Collection (ATCC) and cultured in DMEM media with 10% FBS, 1% penicillin and streptomycin, and 1% glutamine. Cells were kept in 37° C. incubator under humidified conditions containing 5% CO2. […]
The mouse macrophage cell culture supernatants were analyzed for cytokine levels using ELISA kits (BD Biosciences, CA). […] TNF-α and IL-6 levels were measured in cell supernatants by ELISA in accordance with respective manufacturers' instructions (BD Biosciences, CA). Blood was collected, centrifuged at 4,000 RPM for 10 minutes, and sera was separated and analyzed for cytokine levels using ELISA kits (BD Biosciences, CA). TNF-α and IL-6 levels in the serum were measured by ELISA in accordance with respective manufacturers' instructions.

WT mice = experiment: CLP-induced sepsis, 10-day survival; type: in vivo, mouse
Method: FIG. 6A-6M: MOP3 ameliorates inflammation, lung injury, and improves survival in sepsis. WT mice subjected to CLP-induced sepsis with MOP3 treatment (10 μg/kg) or vehicle (volume-equivalent). After 20 hours, blood and lung tissue collected for respective analyses. (A-C) Serum was analyzed for systemic eCIRP, IL-6, and TNFα levels by ELISA. (D-F) Serum was analyzed for ALT, AST, and LDH by calorimetric assays. (G-I) Lung tissue was frozen and mRNA expression of IL-6, TNFα, and IL-1β was measured by PCR and MPO by calorimetric assay. (J) Lung tissue was frozen and analyzed for MPO levels by calorimetric assay. (K) Lungs were sectioned, imaged for histologic injury by H&E staining, and performed lung injury scoring. (L) Sectioned lungs were stained for TUNEL positive cells and cell counts were quantified. […] Data are expressed as mean±SEM and compared by one-way ANOVA and SNK test. *p<0.05 vs. sham, #p<0.05 vs. CLP vehicle. (M) WT mice subjected to CLP-induced sepsis with MOP3 treatment (10 μg/kg) or vehicle (volume equivalent) and monitored for 10 days for humane endpoints, and differences in survival were determined (N=17 per group). *p<0.05 vs. CLP vehicle. […]
Data represented in the figures are expressed as mean±SEM. […] Survival rates were analyzed by the Kaplan-Meier estimator and compared using a log-rank test. Significant differences between groups were determined by Tukey's method. […]

CC(C)C[C@H](NC(=O)[C@H](CC(N)=O)NC(=O)[C@H](Cc1c[nH]c2ccccc12)NC(=O)[C@@H](NC(=O)[C@H](CCCCN)NC(=O)[C@H](Cc1ccc(O)cc1)NC(=O)[C@H](CO)NC(=O)[C@H](CO)NC(=O)[C@H](CO)NC(=O)[C@H](CC(=O)O)NC(=O)CNC(=O)[C@@H](N)CCCNC(=N)N)[C@@H](C)O)C(=O)N[C@@H](CCCNC(=N)N)C(=O)N[C@@H](C)C(=O)N[C@@H](Cc1ccccc1)C(=O)NCC(=O)N[C@@H](Cc1c[nH]c2ccccc12)C(=O)N[C@@H](Cc1ccc(O)cc1)C(=O)O [MOP3, RGDSSSYKTWNLRAFGWY] (H-RGDSSSYKTWNLRAFGWY-OH; N-terminus and C-terminus assumed)
TNFα levels in cell supernatants (RAW264.7 cells): strong inhibitory effect; also recorded: significantly decreased TNFα levels | TNFα levels in cell supernatants (RAW264.7 cells; listed as peptide-3): capable of attenuating TNFα release | mortality (WT mice; CLP, one-time MOP3 dose, monitored 10 days, N=17 per group): 17.6% | observed phenotypic effects (WT mice; septic mice, no off-target, pharmacokinetic or toxicity studies performed): lack of observed phenotypic effects
